From patent publication US20140378378A1, “ERYTHROPOIETIN-DERIVED PEPTIDE AND USE THEREFOR” (priority 2011, published 2014) come the findings set out here.

The test system of this assay is neurocytes. Description: Cell survival of neurocytes after serum removal, with or without 0.1% 2-mercaptoethanol, 72 hours. It counts as cell-based, rat. An excerpt:
A rat pregnant for […] was cervically dislocated to sacrifice the experimental animal and the abdomen of the experimental animal was excised in an U-shape to expose the uterus in which a fetus was located. Thereafter, the fetus was taken out from the uterus and then inserted into a fetus washing medium and then washed three times. Only the head of the fetus was cut and then inserted into the fetus washing medium to wash the head three times and then the cranium of the fetus was broken to separate the brain therefrom. A knife was used to cut the cortex of the brain and tissues of the cortex were thoroughly chopped, which were then collected in the already prepared fetus washing medium. After centrifuging at 400 g for 4 minutes, a supernatant was removed therefrom and then 0.025% of trypsin and 10 ml of DNase1 were added to the pellets to break the pellets. The mixture was stored in an incubator for 15 minutes.
Thereafter, 15 ml of a cell culture medium was added thereto again, centrifuged at 400 g for 4 minutes, a supernatant was removed therefrom to obtain pellets, which were washed twice with 6 ml of a washing medium (including DNase 1), and then centrifuged again at 400 g for 4 minutes. After the centrifugation, the supernatant solution was removed again to obtain pellets, 10 ml of the culture medium was added to the pellets and a mixture obtained therefrom was mixed with 10 ul of trypan blue to count the cells by using a hemocytometer. In a 24-well plate, 500 ul of the cells were seeded in each well and then cultured for 48 hours. Thereafter, the culture medium was removed from the well plate for stabilization, a new cell culture medium and 5 uM Ara-c (cytosine arabinoside, sigma, C1768) were added thereto, cultured for […], the culture medium was removed again after 24 hours, a new culture medium was added thereto, and then cultured in an incubator having conditions of […], 5% CO2, and a temperature of 37° C. for the next experiment.
In a 96-well plate, cells were inoculated at a density of 2×10^4 cells/well and in an amount of 200 ul for each well. In this regard, cell confluence was set to be about 70% to about 80%. After 24 hours, when the cells have stabilized, a 26 or 28 gauge needle was used to remove a pre-existing medium from the wells. […]

Turning to “EPO: erythropoietin; the EPO used was an Eporon injection (Dong-A Pharmaceuticals, Korea)”, the cell survival rate runs as follows: (EPO 1 IU/ml, serum removed, no 2-mercaptoethanol, 72 hours, normal culture = 100%) 41.64%; (EPO 1 U/ml, after exposure to 0.1% 2-mercaptoethanol for 18 hours) 6.98%; (EPO 10 IU/ml, serum removed, no 2-mercaptoethanol, 72 hours, normal culture = 100%) 48.57%; (EPO 10 U/ml, after exposure to 0.1% 2-mercaptoethanol for 18 hours) 11.70%.
